Assays:
[1] = test system: IMQ-induced psoriasis-like back skin and ear lesions; assay: Imiquimod (IMQ)-induced psoriasis mouse model, skin scoring (erythema, scaling, thickness); format: in vivo, Balb/C mice; details: mice; intradermal injection into back lesion Days 1 and 4; vs vehicle (FIG. 2)
Procedure: The subjects for the study were 40 male Balb/C mice (18-22 g). […] The backs of all mice were shaved for an area of 1.5 cm×2 cm.
Formulation A was a clear solution of 25 HC3S sodium salt (30 mg/mL) in a solution vehicle (250 mg/mL hydroxypropyl betadex (beta cyclodextrin, 2-hydroxypropyl ether, a partially substituted poly(hydroxypropyl) ether of beta cyclodextrin) and 10 mM sodium phosphate buffer in sterile water). Vehicle was stored at 2-8° C. storage and placed at room temperature for 30 min. prior to mixing with powdered 25HC3S just prior to use. Dissolution of the 25HC3S in Vehicle A was rapid and appeared to be complete upon mixing.
Formulation B was a milky suspension of 25HC3S sodium salt (25 mg/mL) in a suspension vehicle (30 mg/mL polyethylene glycol 3350, 3 mg/mL polysorbate 80, 7.5 mg/mL NaCl, and 10 mM sodium phosphate buffer in sterile water). The 25HC3S was milled using a Fluid Energy Model 00 Jet-O-Mizer™ to approximately a 5 microns average particle size (measured by a Malvern Mastersizer 2000 equipped with a hydro 2000S dispersion cell) prior to addition to the vehicle. […]
Mice were monitored for signs of distress and daily photos of the back lesions were taken. Erythema, scaling, and thickness of the back skin was scored daily on a scale from 0 to 4 by an independent scorer (blind), where 0=none; 1=slight; 2=moderate; 3=marked; and 4=very marked. […]

psoriasis plaques = assay: Proof of concept study of single intralesional doses in psoriasis patients, microplaque assay (LPSI); format: in vivo, human; details: single intralesional dose (3 injections of 100 μL); 14 day scoring period
Text: The objectives of this study were: • To establish preliminary evidence for the efficacy of intralesionally injected 25HC3S in patients with psoriasis, as assessed by microplaque assay. • To assess the safety of 25HC3S in patients with psoriasis. • Compare evidence for the efficacy of different formulations of intralesionally injected 25HC3S.
• This trial was a double-blind, within-participant, randomized, vehicle and active comparator-controlled, single-dose study. Participants attended a screening visit within 28 days of dosing. A target plaque(s) of psoriasis was selected. • Day 0: each participant was treated with 2 different formulations of study drug, 2 vehicle formulations, one active comparator and one untreated area (6 treatments in total). Each treatment was administered to every participant as an intralesional injection, with the exception of the untreated area. • Participants were required to return for outpatient visits for microplaque assessments at Day 1, Day 2, Day 7 and Day 14. Treatment Formulations: Table 12 lists the formulated drug products and Table 13 lists the amounts injected.
Ten patients with mild to severe psoriasis were enrolled into this clinical trial after screening. […]
The effect of 25HC3S in psoriasis was assessed by the change of LPSI score as compared to vehicle or untreated in this microplaque assay. […]

C[C@H](CCCC(C)(C)O)[C@H]1CC[C@H]2[C@@H]3CC=C4C[C@@H](OS(=O)(=O)[O-])CC[C@]4(C)[C@H]3CC[C@]12C.[Na+] [Formulation 25HC3S, 5-cholesten-3, 25-diol, 3-sulfate]
erythema (redness) of the back skin [1]: promotes reduction in erythema
effect on psoriatic plaques based on LPSI score (psoriasis plaques): exhibited efficacy in psoriatic plaques by reducing LPSI
